According to the supplement of paper PMC10307832:

Key:
Assay in all cases: relative viability (nuclei count vs DMSO), 5 days (fraction); higher = more cells survive
[1] = compound: CCn1c(-c2nonc2N)nc2c(C#CC(C)(C)O)ncc(OC[C@H]3CCCNC3)c21 + CC(C)C[C@H](NC(=O)[C@H](Cc1ccccc1)NC(=O)c1cnccn1)B(O)O [Bortezomib] (partner 0.002 µM)
Summary of the method: (§1)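 A single step with final 0.05% Triton X-100, 1% formaldehyde and 1 ug/ml Hoechst fixed the cells and stained nuclei 5 days after treatment. Lung cancer cell lines in 1536-well plates had been treated by pin tool the day after seeding with one drug alone or a fixed anchor-drug dose plus five library-drug doses (not always all listed) in √10 steps, and nuclei were counted on 4× images. Relative viability is the ratio of nuclei in treated wells to nuclei in vehicle wells, taken as the median of duplicate plates.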

[2] = compound: CCOC1=CC=CC=C1N=NC2=C(NN(C2=O)C3=NC(=CS3)C4=CC=CC=C4)C [BAM7] + Nc1nc2[nH]cc(CCc3ccc(C(=O)N[C@@H](CCC(=O)O)C(=O)O)cc3)c2c(=O)[nH]1 [Pemetrexed] (partner 0.2 µM)
Summary of the method: as §1

[3] = compound: CCn1c(-c2nonc2N)nc2c(C#CC(C)(C)O)ncc(OC[C@H]3CCCNC3)c21 + C[C@@H](Oc1cc(-c2cnn(C3CCNCC3)c2)cnc1N)c1c(Cl)ccc(F)c1Cl [Crizotinib] (partner 1 µM)
Summary of the method: as §1

[4] = compound: CCOC1=CC=CC=C1N=NC2=C(NN(C2=O)C3=NC(=CS3)C4=CC=CC=C4)C [BAM7] + COc1cc2c(Oc3ccc(NC(=O)C4(C(=O)Nc5ccc(F)cc5)CC4)cc3F)ccnc2cc1OCCCN1CCOCC1 [Foretinib] (partner 0.25 µM)
Summary of the method: as §1

UMC-11
relative viability ([1]; first compound 0.01 µM): 0.676 | relative viability ([1]; first compound 0.03162 µM): 0.905 | relative viability ([1]; first compound 0.1 µM): 0.833 | relative viability ([1]; first compound 0.3162 µM): 0.48 | relative viability ([1]; first compound 1 µM): 0.661 | relative viability ([2]; first compound 0.5 µM): 0.85 | relative viability ([2]; first compound 5 µM): 0.912 | relative viability ([2]; first compound 15.81 µM): 0.847 | relative viability ([2]; first compound 50 µM): 0.839 | relative viability ([3]; first compound 0.01 µM): 0.704 | relative viability ([3]; first compound 0.03162 µM): 0.695 | relative viability ([3]; first compound 0.1 µM): 0.65 | relative viability ([3]; first compound 0.3162 µM): 0.645 | relative viability ([3]; first compound 1 µM): 0.547 | relative viability ([4]; first compound 0.5 µM): 1.03 | relative viability ([4]; first compound 5 µM): 1.09 | relative viability ([4]; first compound 15.81 µM): 1.13 | relative viability ([4]; first compound 50 µM): 1.07
